Measured values from PMC11088877, “AMP-activated protein kinase can be allosterically activated by ADP but AMP remains the key activating ligand” (Biochemical Journal, 2024).

Assays:
[1] = target: T1, human α2β2γ1 complex, CBS3 mutant (V276G/L277G) (Homo sapiens, UniProt P54619+P54646, L277G/V276G); assay: AMPK inactivation and Thr172 dephosphorylation by PPM1A, CBS3 mutant; type: biochemical; settings: 300 µM nucleotide, absence of ATP
T1 construct: made in house; host or cells: Escherichia coli
T1 sequence (P54619 whole entry V276G/L277G): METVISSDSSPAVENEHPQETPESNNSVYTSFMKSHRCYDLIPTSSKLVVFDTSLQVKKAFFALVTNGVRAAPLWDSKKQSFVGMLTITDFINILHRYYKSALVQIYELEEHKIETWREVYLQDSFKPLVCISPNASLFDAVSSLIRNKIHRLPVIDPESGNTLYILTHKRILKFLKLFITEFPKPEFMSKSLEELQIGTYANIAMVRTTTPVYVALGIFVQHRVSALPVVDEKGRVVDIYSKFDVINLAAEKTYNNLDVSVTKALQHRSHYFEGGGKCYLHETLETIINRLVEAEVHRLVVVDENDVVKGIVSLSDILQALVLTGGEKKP
T1 sequence (P54646 whole entry): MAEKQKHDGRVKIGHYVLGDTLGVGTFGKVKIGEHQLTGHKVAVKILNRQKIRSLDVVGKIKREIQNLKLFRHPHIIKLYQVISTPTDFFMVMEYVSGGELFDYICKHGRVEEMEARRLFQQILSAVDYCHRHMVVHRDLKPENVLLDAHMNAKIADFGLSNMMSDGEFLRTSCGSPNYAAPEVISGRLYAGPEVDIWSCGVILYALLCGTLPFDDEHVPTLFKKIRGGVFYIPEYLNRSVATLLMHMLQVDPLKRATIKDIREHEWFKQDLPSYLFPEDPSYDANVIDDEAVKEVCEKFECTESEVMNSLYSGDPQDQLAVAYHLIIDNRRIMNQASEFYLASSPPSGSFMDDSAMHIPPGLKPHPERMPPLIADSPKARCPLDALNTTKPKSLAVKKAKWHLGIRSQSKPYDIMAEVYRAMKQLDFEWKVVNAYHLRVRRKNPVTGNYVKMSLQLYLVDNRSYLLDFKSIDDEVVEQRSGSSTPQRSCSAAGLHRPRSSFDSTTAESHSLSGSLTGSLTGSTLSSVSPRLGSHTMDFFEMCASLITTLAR
T1 sequence (O43741 whole entry partner): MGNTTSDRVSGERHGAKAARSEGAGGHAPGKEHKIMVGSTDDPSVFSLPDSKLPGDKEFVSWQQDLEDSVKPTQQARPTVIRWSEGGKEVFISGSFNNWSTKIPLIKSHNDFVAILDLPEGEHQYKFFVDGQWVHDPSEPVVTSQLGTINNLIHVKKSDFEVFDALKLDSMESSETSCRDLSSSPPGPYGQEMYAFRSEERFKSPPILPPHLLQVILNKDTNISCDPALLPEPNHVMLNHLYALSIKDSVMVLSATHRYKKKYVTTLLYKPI
Procedure: The relative roles of the three CBS sites in the other two mechanisms of activation of AMPK by AMP or ADP, i.e. promotion of Thr172 phosphorylation by LKB1, and protection against Thr172 dephosphorylation by protein phosphatases, have not been examined previously. As expected, incubation of the α2β2γ1 AMPK complex with a fixed, limiting amount of purified LKB1:STRADα:MO25α complex in the presence of 200 µM Mg.ATP^2− caused a large degree of activation (Figure 5A) and phosphorylation (Figure 5B) of AMPK (unphosphorylated α2β2γ1 complex), which were stimulated more than 2-fold by 300 µM AMP and 1.6-fold by 300 µM ADP.
Figure 6. Effects of AMP or ADP on AMPK inactivation and Thr172 dephosphorylation by PP2Cα (PPM1A). Human α2β2γ1 complexes (WT, or with L129D/V130D, V276G/L277G or I312G mutations affecting CBS1, CBS3 or CBS4 respectively), all phosphorylated on Thr172, were incubated with a fixed concentration of PP2Cα (PPM1A) in the presence or absence of AMP or ADP (both 300 µM) as described in the Materials and methods section. After the incubation, aliquots were withdrawn for (A) AMPK assay or (B) Western blots. […] For (B), due to a limit on the number of lanes that could be run on one gel, single replicates from the triplicate assays were analysed. […]

[2] = tested on: FLAG-γ1-containing AMPK complexes; design: method as in PMID 26542978; settings: ADP 300 µM to 3 mM; cited from earlier work

SMILES	protective effect of nucleotide against PPM1A in the mutant [1]	stimulation of activation by LKB1 [2] [fold]
Nc1ncnc2c1ncn2[C@@H]1O[C@H](COP(=O)(O)OP(=O)(O)O)[C@@H](O)[C@H]1O [ADP]	almost completely abolished	< 2
Nc1ncnc2c1ncn2[C@@H]1O[C@H](COP(=O)(O)O)[C@@H](O)[C@H]1O [AMP]	almost completely abolished	–
